The test system of one assay is HTLV-1. Description: Measurement of amount of virus (HTLV-1 P19 ELISA), HUT102. Type of assay: cell-based, human T-cell leukemia virus type 1. The note with it: 100 μM, Day 0, 2, 4, 7, compared among six NRTIs. The procedure:
(§1) HTLV-1-producing cell lines, MT2 (transformant with HTLV-1, JCRB cell No: JCRB1210) and HUT102 (ATL-derived cell line, ATCC No: TIB-162), were used.
Each nucleoside analogue reverse transcriptase inhibitor was added to the medium for cells at a final concentration of 100 μM. Cells were seeded on a 96-well plate at a concentration of 1×10^4 cells/100 μL/well and cultured for 0 hour (Day 0), 48 hours (2 days), 96 hours (4 days) or 168 hours (7 days). At each time point, the medium was collected. The amount of virus contained in the medium collected at each time point (pg/mL) was measured by HTLV-1 P19 ELISA kit (manufactured by Zeptometrix).

Assay [1] concerns non-ATL cell line, Jurkat. Nature of the assay: Chromosome double-strand break (Giemsa chromosome specimens), Jurkat. Type of assay: cell-based, human. Conditions: 100 μM, 48 hours. The procedure:
Abacavir was added to an ATL cell line, ED40515 (−), at a concentration of 0 μM (DMSO was added instead of abacavir), 10 μM, 25 μM, 50 μM, 75 μM or 100 μM. After the 48 hours culture, the cells were fixed by Carnoy and stained with Giemsa to prepare chromosome specimens in accordance with conventional methods. Similarly, zidovudine was added to ED40515 (−) at a concentration of 10 μM or 100 μM, and abacavir was added to a non-ATL cell line, Jurkat, at a concentration of 100 μM, and chromosome specimens were prepared. Chromosome images (100 or more images per group) were observed by an optical microscope. The cells were determined as being positive for double-strand break (DSB) when at least one chromosome break was found.

Assay [2] relates to HTLV-1-producing cell line, HUT102 (derived from ATL). Nature of the assay: Cellular proliferation test (MTS assay), HUT102. Type of assay: cell-based. As for the experimental part: as §1
(§2) Each nucleoside analogue reverse transcriptase inhibitor was added to the medium for cells at a final concentration of 100 μM. Cells were seeded on a 96-well plate at a concentration of 1×10^4 cells/100 μL/well and cultured for 4 hours (Day 0), 48 hours (Day 2) or 96 hours (Day 4). A medium added DMSO (solvent control) alone was used as a control. Cellular proliferation was examined by MTS assay. Specifically, after the cells were cultured for a predetermined time, a reagent for cellular proliferation test, Aqueous One Solution Cell Proliferation (trade name, manufactured by Promega), was added to the cells. Four hours later, absorbance at 490 nm was measured. The cellular proliferation was represented by a ratio relative to that of the control (solvent control) on Day 0 that was regarded as 1.
Abacavir was added to MT2 and HUT102 used in Example 1 at a concentration of 0 μM (DMSO was added instead of abacavir), 10 μM, 25 μM, 50 μM, 75 μM or 100 μM. The cells were seeded on a 96-well plate at a concentration of 1×10^4 cells/100 μL/well and cultured for 4 hours or 48 hours. […]

For assay [3], the system named is HOP—62 (lung cancer cell line lacking TDP1 expression). Description: Cellular proliferation (MTS) of lung cancer cell line HOP—62. Type of assay: cell-based. Conditions: 100, 200 or 300 μM, 72 hours. As for the experimental part:
Lung cancer cell lines lacking TDP1 expression, HOP—62 and NCI_H522, were used. NCI_H1299, a lung cancer cell line expressing TDP1, was used as a control. HOP—62 and NCI_H522 were provided by Dr. Pommier (DNA Repair. 2014 January; 13: 1-9).
Abacavir was added to each of the cell lines at a concentration of 0 μM (DMSO was added instead of abacavir), 100 μM, 200 μM or 300 μM. The cells were seeded on a 96-well plate at a concentration of 3×10^3 cells/100 μL/well and cultured for 4 hours or 72 hours. After the culture of a predetermined time, MTS assay was performed using a reagent for cellular proliferation, test, Aqueous One Solution Cell Proliferation (trade name, manufactured by Promega), in the same manner as in Example 1. The cellular proliferation was represented by a ratio relative to that of the control (solvent control) on Day 0 that was regarded as 100%.

Assay [4] has as its system non-ATL cell line, Jurkat. Nature of the assay: Cell-cycle analysis by flow cytometry (PI), Jurkat. Type of assay: cell-based, human. The note with it: 10 μM or 100 μM, 24 hours. The procedure:
To an ATL cell line, ED40515 (−), or a non-ATL cell line, Jurkat, DMSO (solvent control), adriamycin (ADR, positive control) or abacavir (10 μM or 100 μM) was added.

In assay [5] the test system is H9 (non-HTLV-1-infected cell line). Nature of the assay: Cellular proliferation (MTS assay), H9. Type of assay: cell-based. The note with it: 100 μM. The procedure: as §2
This example used non-HTLV-1-infected cell lines: Jurkat (cell line derived from human T-cell leukemia, ATCC No: TIB-152), Kit225 (cell line derived from chronic T-cell leukemia, established in the laboratory of the inventors, Blood. 1987 October; 70 (4): 1069-72.), H9 (cell line derived from cutaneous T-cell lymphoma, ATCC No: HTB-176) and SUDHL6 (cell line derived from diffuse B cell lymphoma).
The six types of nucleoside analogue reverse transcriptase inhibitors as used in Example 1 were used and cellular proliferation was examined in the same manner as in Example 1.

The test system of assay [6] is SYK-11L (+) (non-virus-producing ATL cell line). Description: Cellular proliferation (MTS assay), SYK-11L (+). Type of assay: cell-based. The procedure:
as §2
This example used HTLV-1-infected cell lines (non-virus-producing ATL cell lines): ED40515 (−), ED40515 (+), and ATL43T (all were provided by Prof. Michiyuki Maeda who produced the cells); and SYK-11L (+) (prepared in the laboratory of the inventors).
The six types of nucleoside analogue reverse transcriptase inhibitors as used in Example 1 were used and cellular proliferation was examined in the same manner as in Example 1. […]

SMILES strings stand for the structures.

In the case of `Nc1nc(NC2CC2)c2ncn([C@H]3C=C[C@@H](CO)C3)c2n1` [abacavir, (−)-(1S,4R)-4-[2-amino-6-(cyclopropylamino)-9H-purin-9-yl]-2-cyclopentene-1-methanol], in the assay with HTLV-1, the “viral production (amount of virus in the medium)” value is “most strongly suppressed”. Besides, the “ratio of double-strand break-positive cells” value in assay [1] is given as “did not induce double-strand break”. Also, in assay [2] (100 μM, Day 0, 2, 4, compared among six NRTIs), the “cellular proliferation (ratio relative to solvent control on Day 0)” value is “most strongly suppressed”. Also, the “cellular proliferation, dose dependence” value was “suppressed cellular proliferation of both cell lines in a dose-dependent manner” in assay [2] (10, 25, 50, 75, 100 μM, 48 hours) and “suppressed cellular proliferation of all the cell lines in a dose-dependent manner” in assay [6] (10-100 μM, Day 0, 2, 4). Besides, the cellular proliferation result in assay [3] is “suppressed cellular proliferation of HOP—62 and NCI_H522 lacking TDP1 expression in a concentration dependent manner”; in assay [5] it was “did not exhibit a suppressive effect”; in assay [6] (100 μM), “strong suppressive effect”. The “cell cycle (ratio of cells in G0G1/S/G2 phase)” value in assay [4] is “did not affect the cell cycle”.

Values taken from US20160000796A1, “PHARMACEUTICAL COMPOSITION FOR USE IN PREVENTION OR TREATMENT OF CANCER” (priority 2013, published 2016).
